How the values were obtained:
[1] = Stability in Simulated Gastric Fluid (SGF); format: in vitro ADME; set-up: key: % parent compound remaining relative to 0-minute sample
Method in brief: (§1)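 LC-MS/MS read-out of intact compound (2 μg/mL final) over 60 minutes at 37° C; gastric medium pH 1.2 with pepsin, intestinal medium pH 6.8 with pancreatin. Half-life from ln(% remaining) against time.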

[2] = Caco-2 Permeability Assay; format: in vitro ADME, human; conditions: human
Method in brief: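 Bidirectional transport at 37 °C for 90 min, 10 μM donor concentration, with or without Pgp inhibitor, across 21-day Caco-2 monolayers with TEER >600 […] in HEPES-buffered HBSS, pH 7.4. LC-MS/MS of donor and receiver samples gives Papp, B→A/A→B efflux ratio and mass recovery.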

[3] = Stability in Simulated Intestinal Fluid (SIF); format: in vitro ADME; set-up: key: % parent compound remaining relative to 0-minute sample
Method in brief: as §1

Plasma Stability = format: in vitro ADME, human; conditions: % remaining at 1 h; human plasma, 1 μM, 37° C.
Method in brief: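 Parent compound quantified by LC-MS/MS after acetonitrile precipitation, reported as percent of control remaining (triplicate). Incubation: 1 hour, 37° C, fresh human plasma, compound at 1 μM.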

[4] = % remaining at 1 h, SGF with pepsin pH 1.2, 2 μg/mL, 37° C.
[5] = Caco-2, pH 7.4, donor 10 μM, 90 minutes, 37° C., direction not given
[6] = % remaining at 1 h, SIF with pancreatin pH 6.8, 2 μg/mL, 37° C.
[7] = bare number, no % and no time given
[8] = Caco-2, pH 7.4, no unit printed at the place (tables the 9th table and the 10th table have no head)

SGF [1, 4] | Papp at 90 min, 10 µM [2, 5] | SIF [3, 6] | human Plasma stability (Plasma Stability) | SGF [1, 7] | SIF [3, 7] | Structure (SMILES) | Papp at 90 min, 10 µM [2, 8]
98% | 0.24 ×10⁻⁶ cm/s | 17% | 0% | – | – | CC(C)OCCn1c(=S)[nH]c(=O)c2c1ccn2COC(=O)[C@@H]1CCC(=O)N1 [Example 86, {4-Oxo-1-[2-(propan-2-yloxy)ethyl]-2-sulfanylidene-1H,2H,3H,4H,5H-pyrrolo[3,2-d]pyrimidin-5-yl}methyl(2S)-5-oxopyrrolidine-2-carboxylate] | –
99% | 0.751 ×10⁻⁶ cm/s | 64% | 100% | – | – | COCCOCCN(C)C(=O)OCSc1nc(=O)c2[nH]ccc2n1CCOC(C)C [Example 88, ({4-Oxo-1-[2-(propan-2-yloxy)ethyl]-1H,4H,5H-pyrrolo[3,2-d]pyrimidin-2-yl}sulfanyl)methyl N-[2-(2-methoxyethoxy)ethyl]-N-methylcarbamate] | –
77% remaining | 18 ×10⁻⁶ cm/s | 56% remaining | 0% remaining | – | – | CC(C)OCCn1c(=S)[nH]c(=O)c2c1ccn2COC(=O)OC(C)C [Example 90, {4-oxo-1-[2-(propan-2-yloxy)ethyl]-2-sulfanylidene-1H,2H,3H,4H,5H-pyrrolo[3,2-d]pyrimidin-5-yl}methyl propan-2-yl carbonate] | –
98% remaining | 14.2 ×10⁻⁶ cm/s | 99% remaining | 1% remaining | – | – | CC(C)OCCn1c(SCOC(=O)OC(C)C)nc(=O)c2c1ccn2COC(=O)OC(C)C [Example 91, {4-oxo-2-[{{[(propan-2-yloxy)carbonyl]oxy}methyl)sulfanyl]-1-[2-(propan-2-yloxy)ethyl]-1H,4H,5H-pyrrolo[3,2-d]pyrimidin-5-yl}methyl propan-2-yl carbonate] | –
– | 16.8 ×10⁻⁶ cm/s | – | 0% remaining | 99 | 38 | COCCOCCC(=O)OCn1ccc2c1c(=O)[nH]c(=S)n2CCOC(C)C [Example 93, {4-oxo-1-[2-(propan-2-yloxy)ethyl]-2-sulfanylidene-1H,2H,3H,4H,5H-pyrrolo[3,2-d]pyrimidin-5-yl}methyl 3-(2-methoxyethoxy)propanoate] | –
– | 15.1 ×10⁻⁶ cm/s | – | 99% remaining | 99 | 95 | CC(C)OCCn1c(SCOC(=O)N(C)CC(F)(F)F)nc(=O)c2[nH]ccc21 [Example 94, ({4-oxo-1-[2-(propan-2-yloxy)ethyl]-1H,4H,5H-pyrrolo[3,2-d]pyrimidin-2-yl}sulfanyl)methyl N-methyl-N-(2,2,2-trifluoroethyl)carbamate] | –
– | 18.8 ×10⁻⁶ cm/s | – | 99% remaining | 100 | 95 | CC(C)OCCn1c(SCOC(=O)N(C)CC(F)(F)F)nc(=O)c2c1ccn2COC(=O)N(C)CC(F)(F)F [Example 95, {2-[{{[methyl(2,2,2-trifluoroethyl)carbamoyl]oxy}methyl)sulfanyl]-4-oxo-1-[2-(propan-2-yloxy)ethyl]-1H, 4H,5H-pyrrolo[3,2-d]pyrimidin-5-yl}methyl N-methyl-N-(2,2,2-trifluoroethyl)carbamate] | –
– | 30.8 ×10⁻⁶ cm/s | – | 99% remaining | 98 | 96 | CC(C)OCCn1c(SCOC(=O)N(CC(F)(F)F)CC(F)(F)F)nc(=O)c2c1ccn2COC(=O)N(CC(F)(F)F)CC(F)(F)F [Example 97, {2-[{{[bis(2,2,2-trifluoroethyl)carbamoyl]oxy}methyl)sulfanyl]-4-oxo-1-[2-(propan-2-yloxy)ethyl]-1H,4H,5H-pyrrolo[3,2-d]pyrimidin-5-yl}methyl N,N-bis(2,2,2-trifluoroethyl)carbamate] | –
– | 6.53 ×10⁻⁶ cm/s | – | 99% remaining | 95 | 80 | CC(C)OCCn1c(=S)n(COC(=O)N(CC(F)(F)F)CC(F)(F)F)c(=O)c2c1ccn2COC(=O)N(CC(F)(F)F)CC(F)(F)F [Example 98, [3-({[bis(2,2,2-trifluoroethyl)carbamoyl]oxy}methyl)-4-oxo-1-[2-(propan-2-yloxy)ethyl]-2-sulfanylidene-1H, 2H,3H,4H,5H-pyrrolo[3,2-d]pyrimidin-5-yl]methyl N,N-bis(2,2,2-trifluoroethyl)carbamate] | –

Second part, the compound before the results:

Structure (SMILES) | SGF [1, 4] | Papp at 90 min, 10 µM [2, 5] | SIF [3, 6] | human Plasma stability (Plasma Stability) | SGF [1, 7] | SIF [3, 7] | Papp at 90 min, 10 µM [2, 8]
CC(C)OCCn1c(=S)n(COCC[Si](C)(C)C)c(=O)c2c1ccn2COCC[Si](C)(C)C [Example 71, 1-[2-(propan-2-yloxy)ethyl]-2-sulfanylidene-3,5-bis({[2-(trimethylsilyl)ethoxy]methyl})-1H,2H,3H,4H,5H-pyrrolo[3,2-d]pyrimidin-4-one] | 98% | 0.178 ×10⁻⁶ cm/s | 88% | 58% | – | – | –
CC(C)OCCn1c(=S)[nH]c(=O)c2c1ccn2COCC[Si](C)(C)C [Example 72, 1-[2-(propan-2-yloxy)ethyl]-2-sulfanylidene-5-{[2-(trimethylsilyl)ethoxy]methyl}-1H,2H,3H,4H,5H-pyrrolo[3,2-d]pyrimidin-4-one] | 97% | 26.4 ×10⁻⁶ cm/s | 98% | 78% | – | – | –
CC(C)OCCn1c(SCOCC[Si](C)(C)C)nc(=O)c2c1ccn2COCC[Si](C)(C)C [Example 73, 1-[2-(propan-2-yloxy)ethyl]-5-{[2-(trimethylsilyl)ethoxy]-methyl}-2-({[2-(trimethylsilyl)ethoxy]methyl}sulfanyl)-1H,4H,5H-pyrrolo[3,2-d]pyrimidin-4-one] | 35% | < 0.717 ×10⁻⁶ cm/s | 55% | 99% | – | – | –
CC(C)OCCn1c(=S)[nH]c(=O)c2c1ccn2COP(=O)(O)O [Example 83, ({4-oxo-1-[2-(propan-2-yloxy)ethyl]-2-sulfanylidene-1H,2H,3H,4H,5H-pyrrolo[3,2-d]pyrimidin-5-yl}methoxy)phosphonic acid] | 91% | < 1.07 ×10⁻⁶ cm/s | 100% | 95% @ | – | – | –
CC(C)OCCn1c(=S)[nH]c(=O)c2c1ccn2COC(=O)[C@@H]1CCC(=O)N1C(=O)OC(C)(C)C [Example 85, 1-tert-Butyl 2-{4-oxo-1-[2-(propan-2-yloxy)ethyl]-2-sulfanylidene-1H,2H,3H,4H,5H-pyrrolo[3,2-d]pyrimidin-5-yl}methyl (2S)-5-oxopyrrolidine-1,2-dicarboxylate] | 78% | 6.54 ×10⁻⁶ cm/s | 90% | 30% | – | – | –
COCCOCCOCC(=O)OCn1ccc2c1c(=O)[nH]c(=S)n2CCOC(C)C [Example 87] | 97% | 7.05 ×10⁻⁶ cm/s | 28% | 0% | – | – | –
COCCOCCN(C)C(=O)OCSc1nc(=O)c2c(ccn2COC(=O)N(C)CCOCCOC)n1CCOC(C)C [Example 89, (2-{[({[2-(2-methoxyethoxy)ethyl](methyl)carbamoyl}oxy)methyl]sulfanyl}-4-oxo-1-[2-(propan-2-yloxy)ethyl]-1H,4H,5H-pyrrolo[3,2-d]pyrimidin-5-yl)methyl N-[2-(2-methoxyethoxy)ethyl]-N-methylcarbamate] | 99% | 0.488 ×10⁻⁶ cm/s | 65% | 100% | – | – | –
CC(C)OCCn1c(SCOC(=O)N(CC(F)(F)F)CC(F)(F)F)nc(=O)c2[nH]ccc21 [Example 96, ({4-oxo-1-[2-(propan-2-yloxy)ethyl]-1H,4H,5H-pyrrolo[3,2-d]pyrimidin-2-yl}sulfanyl)methyl N,N-bis(2,2,2-trifluoroethyl)carbamate] | – | 20.3 ×10⁻⁶ cm/s | – | 98% remaining | 98 | 97 | –
CC(C)OCCn1c(=S)[nH]c(=O)c2c1ccn2C(C)OC(=O)OC1CCN(C(=O)OC(C)(C)C)CC1 (centres unmarked) [Example 99, tert-Butyl 4-{[(1-{4-oxo-1-[2-(propan-2-yloxy)ethyl]-2-sulfanylidene-1H,2H,3H,4H,5H-pyrrolo[3,2-d]pyrimidin-5-yl}ethoxy)carbonyl]oxy}piperidine-1-carboxylate] | 0% | 0.111 ×10⁻⁶ cm/s | 0% | 5% | – | – | –
CC(C)OCCn1c(=S)[nH]c(=O)c2c1ccn2COC(=O)NCC(F)(F)F [Example 100, {4-oxo-1-[2-(propan-2-yloxy)ethyl]-2-sulfanylidene-1H,2H,3H,4H,5H-pyrrolo[3,2-d]pyrimidin-5-yl}methyl N-(2,2,2-trifluoroethyl)carbamate] | 99% | – | 97% | 97% | – | – | 27.7 ×10⁻⁶ cm/s
COC(=O)[C@H](CCCCNC(=O)OC(C)(C)C)NC(=O)OCn1ccc2c1c(=O)[nH]c(=S)n2CCOC(C)C [Example 101, methyl (2S)-6-{[(tert-butoxy)carbonyl]amino}-2-{[{{4-oxo-1-[2-(propan-2-yloxy)ethyl]-2-sulfanylidene-1H,2H,3H,4H,5H-pyrrolo[3,2-d]pyrimidin-5-yl}methoxy)carbonyl]amino}hexanoate] | 75% | – | 96% | 97% | – | – | 1.46 ×10⁻⁶ cm/s
